The test system of assay [1] is MDA-MB-468 cells. As to the kind of experiment: Anti-proliferative effect on MDA-MB-468 cells, inhibition rate at 100 nM (tetrazolium salt method). The assay is classed as cell-based. To be noted: Homo sapiens, 72 hours.
Description: Representative compounds of the present invention were tested at different concentrations (from 1000 nM to 25 nM) to assess their ability to inhibit the proliferation of MDA-MB-468 cells. Cells were grown in RPMI 1640 (Welgene)+10% FBS (Gibco)+1% penicillin/streptomycin (Gibco) and cultured at 37° C. in a humidified chamber in the presence of 5% CO2.
MDA-MB-468 cells cultured in 96-well cell culture plates were treated with representative compounds of the present invention and cultured for 72 hours.
Assay [2] has as its system MDA-MB-468 cells. As to the kind of experiment: Anti-proliferative effect on MDA-MB-468 cells, IC50 (MTT). The assay is classed as cell-based. To be noted: Homo sapiens, MDA-MB-468, 72 h.
Description: The compounds of the present invention were tested at different concentrations (from 1000 nM to 1 nM) to assess their ability for inhibiting the proliferation of MDAMB-468 cells. Cells were cultivated in RPMI 1640 (Welgene)+10% FBS (Gibco)+1% penicillin/streptomycin (Gibco) and cultured at 37° C. in a humidified chamber in the presence of 5% C02.
MDA-MB-468 cells cultured in 96-well cell culture plates were treated with the compounds of the present invention and incubated for 72 hours.
The next assay has as its system HepG2 cells. As to the kind of experiment: HepG2 cell viability assay (CCK-8). The assay is classed as cell-based, human. Conditions: Homo sapiens, HepG2, 72 h. On the procedure: The ability to inhibit the proliferation of HepG2 cells, which are human hepatocellular carcinoma cells, was measured through the in vitro cell viability assay. Cells were cultured at 37° C. in a humidified condition in the presence of 5% CO2 using a culture medium of MEM (Welgene)+10% FBS (Gibco)+1% penicillin/streptomycin (Gibco). […] Cell viability was measured by CCK-8 method using tetrazolium salt, and the ability of the compounds according to the present invention to inhibit cancer cell proliferation was calculated.

Each structure is given as a SMILES string.

In the case of `C=CC(=O)Nc1ccc(-c2cccc([C@H](C)C(=O)Nc3ncc(C(F)(F)F)s3)c2)nn1` [Example 39, (S)-N-(6-(3-(1-oxo-1-((5-(trifluoromethyl)thiazol-2-yl)amino)propan-2-yl)phenyl)pyridazin-3-yl)acrylamide], the inhibition (as a rule, the percentage by which the read-out fell short of the control) at 0.1 µM in the assay on MDA-MB-468 cells [1] amounted to 67%. As for `C=CC(=O)Nc1ccc(-c2cccc([C@H](C)C(=O)Nc3ncc(C4CC4)s3)c2)cn1` [Example 14], the values for the IC50 in the assay on MDA-MB-468 cells [2] and in the assay on HepG2 cells were 63 nM and 5 nM, respectively. Besides, in the assay with MDA-MB-468 cells [1], the inhibition at 0.1 µM was found to be 74%.

Take `C=CC(=O)Nc1ccc(-c2csc(C(C)C(=O)Nc3ncc(C(F)(F)F)s3)c2)cn1` (stereo not shown) [Example 53, N-(5-(5-(1-oxo-1-((5-(trifluoromethyl)thiazol-2-yl)amino)propan-2-yl)thiophen-3-yl)pyridin-2-yl)acrylamide]: the inhibition at 0.1 µM in the assay with MDA-MB-468 cells [1] is 51%. With `C=CC(=O)Nc1cnc(-c2cccc([C@H](C)C(=O)Nc3ncc(C#N)s3)c2)cn1` [Example 25, (S)-N-(5-(3-(1-((5-cyanothiazol-2-yl)amino)-1-oxopropan-2-yl)phenyl)pyrazin-2-yl)acrylamide], the inhibition at 0.1 µM in the assay with MDA-MB-468 cells [1] came to 71%. Regarding `C=CC(=O)Nc1ccc(-c2cccc(C(C)C(=O)Nc3ncc(CC)s3)c2)cn1` (stereo not shown) [Example 4, N-(5-(3-(1-((5-ethylthiazol-2-yl)amino)-1-oxopropan-2-yl)phenyl)pyridin-2-yl)acrylamide], the inhibition at 0.1 µM in the assay with MDA-MB-468 cells [1] stood at 56%. The same measure, in the same setting: in the case of `C=CC(=O)Nc1cnc(-c2cccc([C@H](C)C(=O)Nc3ncc(C4CC4)s3)c2)cn1` [Example 22] it was 72%. With `C=CC(=O)Nc1ccc(-c2cccc(C(C)C(=O)Nc3ncc(C)s3)c2)cn1` (stereo not shown) [Example 1, N-(5-(3-(1-((5-methylthiazol-2-yl)amino)-1-oxopropan-2-yl)phenyl)pyridin-2-yl)acrylamide], the inhibition at 0.1 µM in the assay on MDA-MB-468 cells [1] is 54%. Same read-out and setting: to `C=CC(=O)Nc1ncc(-c2cccc([C@H](C)C(=O)Nc3ncc(C#N)s3)c2)cc1F` [Example 33, (S)-N-(5-(3-(1-((5-cyanothiazol-2-yl)amino)-1-oxopropan-2-yl)phenyl)-3-fluoropyridin-2-yl)acrylamide] belongs 59%.

Consider `C=CC(=O)Nc1ccc(-c2cccc([C@H](C)C(=O)Nc3ncc(C4CC4)s3)c2)nn1` [Example 28], for which the inhibition at 0.1 µM in the assay with MDA-MB-468 cells [1] was determined as 74%.

As for `C=CC(=O)Nc1ccc(-c2cc(C(C)C(=O)Nc3ncc(C4CC4)s3)ccn2)cn1` (stereo not shown) [Example 50, N-(4-(1-((5-cyclopropylthiazol-2-yl)amino)-1-oxopropan-2-yl)-[2,3′-bipyridine]-6′-yl)acrylamide], in the assay with MDA-MB-468 cells [1], the inhibition at 0.1 µM stood at 66%. `C=CC(=O)Nc1ccc(-c2cccc(C(C)C(=O)Nc3ncc(C4CC4)s3)c2)cn1` (stereo not shown) [Example 2, N-(5-(3-(1-((5-cyclopropylthiazol-2-yl)amino)-1-oxopropan-2-yl)phenyl)pyridin-2-yl)acrylamide]: the half-inhibitory concentration (IC50) (in general, the point on the concentration scale where inhibition reaches its midpoint) in the assay with MDA-MB-468 cells [2] is 104 nM; in the assay with HepG2 cells, 15 nM. Moreover, the inhibition at 0.1 µM in the assay on MDA-MB-468 cells [1] stood at 50%. For the molecule `C=CC(=O)Nc1cncc(-c2cccc([C@H](C)C(=O)Nc3ncc(C4CC4)s3)c2)n1` [Example 16], the inhibition at 0.1 µM in the assay on MDA-MB-468 cells [1] worked out at 53%. `C=CC(=O)Nc1ncc(-c2cccc([C@H](C)C(=O)Nc3ncc(C4CC4)s3)c2)cn1` [Example 27]: the inhibition at 0.1 µM in the assay on MDA-MB-468 cells [1] stood at 74%.

Consider `C[C@H](C(=O)Nc1ncc(C2CC2)s1)c1cccc(-c2ccc(NC(=O)/C=C/CN(C)C)nc2)c1` [Example 15], for which half-maximal inhibition in the assay with MDA-MB-468 cells [2] (IC50) required 46 nM. The inhibition at 0.1 µM in the assay with MDA-MB-468 cells [1] turned out to be 73%. As for `C=CC(=O)Nc1ccc(-c2cccc([C@H](C)C(=O)Nc3ncc(C(C)C)s3)c2)nn1` [Example 40, (S)-N-(6-(3-(1-((5-isopropylthiazol-2-yl)amino)-1-oxopropan-2-yl)phenyl)pyridazin-3-yl)acrylamide], the inhibition at 0.1 µM in the assay on MDA-MB-468 cells [1] came to 64%. As for `C=CC(=O)Nc1cnc(-c2cncc(C(C)C(=O)Nc3ncc(C(C)C)s3)c2)cn1` (stereo not shown) [Example 47, N-(5-(5-(1-((5-isopropylthiazol-2-yl)amino)-1-oxopropan-2-yl)pyridin-3-yl)pyrazin-2-yl) acrylamide], the inhibition at 0.1 µM with MDA-MB-468 cells [1] was 72%. Still for that read-out and setting: to `C=CC(=O)Nc1ccc(-c2cccc([C@H](C)C(=O)Nc3ncc(C(F)(F)F)s3)c2)cn1` [Example 38, (S)-N-(5-(3-(1-oxo-1-((5-(trifluoromethyl)thiazol-2-yl)amino)propan-2-yl)phenyl)pyridin-2-yl)acrylamide] belongs 64%. `CC(C(=O)Nc1ncc(C2CC2)s1)c1cccc(-c2ccc(NC(=O)/C=C/CN(C)C)nc2)c1` (stereo not shown) [Example 6, (E)-N-(5-(3-(1-((5-cyclopropylthiazol-2-yl)amino)-1-oxopropan-2-yl)phenyl)pyridin-2-yl)-4-(dimethylamino)but-2-enamide]: the results for the IC50 in the assay with MDA-MB-468 cells [2] and in the assay with HepG2 cells were 86 nM and 22 nM, respectively. Moreover, the inhibition at 0.1 µM in the assay with MDA-MB-468 cells [1] was 66%.

As to `C=CC(=O)Nc1ncc(-c2cccc([C@H](C)C(=O)Nc3ncc(C4CC4)s3)c2)cc1F` [Example 29], in the assay with MDA-MB-468 cells [1], the inhibition at 0.1 µM worked out at 75%. Still for that read-out and setting: to `C=CC(=O)Nc1ccc(-c2ccc(F)c(C(C)C(=O)Nc3ncc(C#N)s3)c2)nn1` (stereo not shown) [Example 11, N-(6-(3-(1-((5-cyanothiazol-2-yl)amino)-1-oxopropane-2-yl)-4-fluorophenyl)pyridazin-3-yl)acrylamide] belongs 53%. `C[C@H](C(=O)Nc1ncc(C(F)(F)F)s1)c1cccc(-c2cnc(NC(=O)/C=C/CN(C)C)c(F)c2)c1` [Example 99, (S,E)-4-(dimethylamino)-N-(3-fluoro-5-(3-(1-oxo-1-((5-(trifluoromethyl)thiazol-2-yl)amino)propan-2-yl)phenyl)pyridin-2-yl)but-2-enamide]: the IC50 in the assay on MDA-MB-468 cells [2] amounted to 23 nM; in the assay on HepG2 cells, 5 nM.

For `C[C@H](C(=O)Nc1ncc(C(F)(F)F)s1)c1cccc(-c2cnc(NC(=O)/C=C/CN(C)C)c(C(F)(F)F)c2)c1` [Example 111, (S,E)-4-(dimethylamino)-N-(5-(3-(1-oxo-1-((5-(trifluoromethyl)thiazol-2-yl)amino)propan-2-yl)phenyl)-3-(trifluoromethyl)pyridin-2-yl)but-2-enamide], the IC50 with MDA-MB-468 cells [2] came out at 32 nM; in the assay with HepG2 cells, 4 nM. The matching figures for `COc1cc(-c2cccc([C@H](C)C(=O)Nc3ncc(C(F)(F)F)s3)c2)cnc1NC(=O)/C=C/CN(C)C` [Example 100, (S,E)-4-(dimethylamino)-N-(3-methoxy-5-(3-(1-oxo-1-((5-(trifluoromethyl)thiazol-2-yl)amino)propan-2-yl)phenyl)pyridin-2-yl)but-2-enamide]: 56 nM and 8 nM. `C=CC(=O)Nc1ccc(-c2cncc(C(C)C(=O)Nc3ncc(C(F)(F)F)s3)c2)nn1` (stereo not shown) [Example 49, N-(6-(5-(1-oxo-1-((5-(trifluoromethyl)thiazol-2-yl)amino)propan-2-yl)pyridin-3-yl)pyridazin-3-yl)acrylamide]: the inhibition at 0.1 µM with MDA-MB-468 cells [1] was determined as 67%. `C=CC(=O)Nc1cnc(-c2cncc(C(C)C(=O)Nc3ncc(Cl)s3)c2)cn1` (stereo not shown) [Example 61, N-(5-(5-(1-((5-chlorothiazol-2-yl)amino)-1-oxopropan-2-yl)pyridin-3-yl)pyrazine-2-yl)acrylamide]: in the assay on MDA-MB-468 cells [1], the inhibition at 0.1 µM was 73%.

As to `CCc1cnc(NC(=O)C(CC)c2cccc(-c3cnc(NC(=O)/C=C/CN(C)C)c(C#N)c3)c2)s1` (stereo not shown) [Example 138, (E)-N-(3-cyano-5-(3-(1-((5-ethylthiazol-2-yl)amino)-1-oxobutan-2-yl)phenyl)pyridin-2-yl)-4-(dimethylamino)but-2-enamide], the IC50 in the assay on MDA-MB-468 cells [2] was 100 nM; in the assay with HepG2 cells it was 52 nM. The matching figures for `CC(C(=O)Nc1ncc(C(F)(F)F)s1)c1cncc(-c2cnc(NC(=O)/C=C/CN(C)C)c(C#N)c2)c1` (stereo not shown) [Example 108, (E)-N-(5-cyano-5′-(1-oxo-1-((5-(trifluoromethyl)thiazol-2-yl)amino)propan-2-yl)-[3,3′-bipyridin]-6-yl)-4-(dimethylamino)but-2-enamide]: 31 nM and 4.6 nM. For the molecule `C=CC(=O)Nc1cnc(-c2cccc([C@H](C)C(=O)Nc3ncc(C(C)C)s3)c2)cn1` [Example 36, (S)-N-(5-(3-(1-((5-isopropylthiazol-2-yl)amino)-1-oxopropan-2-yl)phenyl)pyrazin-2-yl)acrylamide], the inhibition at 0.1 µM in the assay with MDA-MB-468 cells [1] was found to be 64%. Take `CCc1cnc(NC(=O)[C@@H](C)c2cccc(-c3ccc(NC(=O)/C=C/CN(C)C)nc3)c2)s1` [Example 17, (S,E)-4-(dimethylamino)-N-(5-(3-(1-((5-ethylthiazol-2-yl)amino)-1-oxopropan-2-yl)phenyl)pyridin-2-yl)but-2-enamide]: the IC50 in the assay on MDA-MB-468 cells [2] came out at 26 nM. The inhibition at 0.1 µM in the assay with MDA-MB-468 cells [1] was found to be 70%. With `CC(C(=O)Nc1ncc(C(F)(F)F)s1)c1cncc(-c2cnc(NC(=O)/C=C/CN3CC4CC3CO4)cn2)c1` (stereo not shown) [Example 83, (E)-4-(2-oxa-5-azabicyclo[2.2.1]heptan-5-yl)-N-(5-(5-(1-oxo-1-((5-(trifluoromethyl)thiazol-2-yl)amino)propan-2-yl)pyridin-3-yl)pyrazin-2-yl)but-2-enamide], the 50% inhibitory concentration (IC50) in the assay on MDA-MB-468 cells [2] turned out to be 21 nM; in the assay on HepG2 cells, 3 nM. Regarding `C[C@H](C(=O)Nc1ncc(Cl)s1)c1cccc(-c2cnc(NC(=O)/C=C/CN3CC4CC3CO4)cn2)c1` (stereo partly drawn) [Example 94, (E)-4-(2-oxa-5-azabicyclo[2.2.1]heptan-5-yl)-N-(5-(3-((S)-1-((5-chlorothiazol-2-yl)amino)-1-oxopropan-2-yl)phenyl)pyrazin-2-yl)but-2-enamide], the IC50 in the assay with MDA-MB-468 cells [2] came out at 59 nM; in the assay with HepG2 cells, 25 nM.

For the origin of these results see patent publication US12110299B2, “Thiazole derivatives and pharmaceutically acceptable salts thereof” (YUNGJIN PHARM. CO., LTD., priority 2018, dated 2024).
